{
  "source": "patent US11542304B2",
  "about": "“Multimeric bicyclic peptide ligands” (BicycleTx Limited, priority 2018, dated 2023)",
  "key": {"MC38 syngeneic tumors": {"tested_on": "MC38 syngeneic tumors", "assay": "In vivo efficacy in MC38 syngeneic tumors in C57BL/6J B-h4-1BB humanized mice", "description": "The MC38 murine colon carcinoma cell line was purchased from Shunran Shanghai Biological Technology Co., Ltd. The cells will be maintained in vitro as monolayer culture in Dulbecco's Modified Eagle's medium (DMEM) supplemented with 10% heat inactivated fetal calf serum, 100 U/mL penicillin and 100 μg/mL streptomycin at 37° C. in an atmosphere of 5% CO2. The tumor cells will be routinely subcultured twice weekly by trypsin-EDTA treatment. Cells growing in an exponential growth phase will be harvested and counted for tumor inoculation. 6-8 week old female C57BL/6J B-h4-1BB humanized mice were subcutaneously injected (in the flank) with MC38 tumor cells (5×10^5) with 0.1 mL PBS for tumor development. Tumor-bearing animals were randomly enrolled into six study groups when the mean tumor size reached approximately 113 mm^3 (Study 1) or 107 mm^3 (Study 2). The test and positive control articles were administrated to the tumor-bearing mice according to predetermined regimens as shown below.\nTest articles were formulated in aqueous vehicle (25 mM Histidine, 10% sucrose pH=7) and administered intravenously or intraperitoneally. CD137 monoclonal antibody agonist was administered by intraperitoneal injection in 0.9% saline.\nTumor volume was measured three times a week in two dimensions using a caliper, and the volume was expressed in mm3 using the formula: V=0.5a×b2 where a and b were the long and short diameters of the tumor, respectively. Results are represented by mean and the standard deviation (Mean±SD).\nIn study 2, mice were sacrificed 21 days after treatment initiation and tumors were harvested for T-cell analysis by flow cytometry. Tumor were cut into small pieces and filtered through a 70 micrometer filter. Lymphocytes were isolated using Histopaque 1083 and resuspended in RPMI 1640 supplemented with 10% fetal bovine serum. Lymphocytes were stained with a cell viability dye (Zombie NIR, Biolegend, #423106) and a panel of antibodies including anti-mouse CD45 (Biolegend, #103138), anti-mouse CD3 (Biolegend, #100328), anti-mouse CD4 (Biolegend, #100438), anti-mouse CD8 (Biolegend, #100759). Stained cells were analysed by Attune N×T Flow Cytometer. T-cell results are expressed as % of CD3+ cells among CD45+ cells. CD8+ T-cell results are expressed as % of CD8+ cells among CD45+CD3+ cells. CD4+ T-cell results are expressed as % of CD4+ cells among CD45+CD3+ cells. Results are represented by mean and the standard deviation (Mean±SD) and the individual values.\nStatistical analysis: Data was analyzed using 2way ANOVA or ordinary One-way ANOVA with Dunnett's test for multiple comparisons, and P<0.05 was considered to be statistically significant. Both statistical analysis and biological observations are taken into consideration. ***p<0.001, **p<0.01, *p<0.05."}, "CD137 [1]": {"target": "T1, CD137 (Homo sapiens, UniProt Q07011)", "T1 sequence (Q07011 24-255)": "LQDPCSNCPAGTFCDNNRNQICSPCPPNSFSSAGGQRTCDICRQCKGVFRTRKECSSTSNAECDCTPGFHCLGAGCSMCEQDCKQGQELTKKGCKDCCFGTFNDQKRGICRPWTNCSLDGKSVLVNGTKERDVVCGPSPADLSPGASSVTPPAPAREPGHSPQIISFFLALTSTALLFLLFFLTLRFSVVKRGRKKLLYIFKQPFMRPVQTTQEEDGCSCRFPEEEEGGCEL", "assay": "CD137 reporter cell activity washout assay", "assay_type": "cell-based", "parameters": "host or cells: Jurkat cells", "settings": "10 nM, exposure 30, 60 or 120 minutes, total 6 hours; FIG. 13", "description": "Jurkat cells engineered to overexpress CD137 and express a luciferase gene under the NF-κB promoter were purchased from Promega. The reporter cells were incubated with 10 nM of CD137 agonists for the indicated times at 37° C. in RPMI1640 media with 1% FBS. After either 30, 60, or 120 minutes, cells were washed in an excess of culture media and resuspended in 75 μL of fresh media. A no washout condition was also included. All washout conditions were performed in duplicate. Cells then continued to incubate for a total of 6 hours (an additional 5.5, 5, or 4 hours respective to exposure times). After incubation, 75 μL of Bio-Glo reagent (Promega) was added to each well and allowed to equilibrate for 10 minutes at room temperature. Luminescence was read on the Clariostar plate reader (BMG LabTech). Fold induction was calculated by dividing the luminescence signal by background wells (reporter cells with no agonist added). The percent of the maximum fold induction was calculated by dividing the fold induction of the washout time by the fold induction of the no washout condition and multiplying by 100."}, "[2]": {"tested_on": "Pan T-cells (isolated from human PBMCs)", "assay": "T-cell cytokine release assay", "assay_type": "cell-based", "settings": "anti-CD3 stimulated T cells, 48 hours; FIG. 14", "description": "Healthy human buffy coat was purchased from the Sylvan N. Goldman Oklahoma Blood Institute and shipped fresh. Peripheral blood mononuclear cells (PBMCs) were isolated by Ficoll density gradient centrifugation. Red blood cells were lysed with ACK (Ammonium-Chloride-Potassium) lysis buffer. Pan T-cells were then isolated from total PBMCs using negative magnetic bead selection (Miltenyi MACS human Pan-T cell isolation kit). Pan T-cells were then plated on anti-CD3 coated 96-well plates (0.5 μg/mL) in culture media (RPMI1640 with 10% FBS) plus or minus compounds. Supernatant from cultures was collected after 24 and 48 hours. Cytokine [i.e., interleukin-2 (IL-2), interferon gamma (IFNγ)] release in supernatant was measured by HTRF assay (CisBio) according to the kit's instructions. HTRF assay plates were read on a Clariostar plate reader (BMG Labtech) at 665 nm and 620 nm. Data was analyzed and extrapolated to a standard curve according to the HTRF kit instruction in Prism and Excel. Cytokine release fold change was calculated by dividing the pg/mL of cytokine detected by background cytokine released (CD3 stimulation alone). Data was graphed in Prism as the mean of replicates with standard deviation error bars."}, "CD137 [3]": {"target": "T1, CD137", "assay": "CD137 Promega reporter cell activity assay (NF-κB luciferase in Jurkat cells)", "method": "CD137 binding multimers were evaluated for CD137 using a Reporter cell activity assay that uses NF-κB luciferase luminescence as a read-out of CD137 activation in Jurkat cells. […] Samples were diluted at concentration expected to give the maximum fold induction and then titrated down in 1/3 dilution series or 1/10 dilution series in a sterile 96 well-plate. […] 50 μl cells were added per well to white cell culture plates.\nCells were co-incubated together with agonists for 6 h at 37° C., 5% CO2. After 6 h Bio-Glo™ was thawed and the assay developed at room-temperature. 75 ul Bio-Glo™ was added per well and incubated for 5-10 min. Luciferase signal was read on a Pherastar plate-reader using MARS program. Data was analysed by transforming the data to x=log (X), then plotting log (agonist) vs. response variable slope (4 parameters) to calculate EC50 values."}},
  "data": [
    {"smiles": "CCCC[C@@H]1NC(=O)[C@H](Cc2ccc(O)cc2)NC(=O)[C@@H]2CCCN2C(=O)[C@H](CC(=O)O)NC(=O)[C@H](C)NC(=O)[C@H](Cc2ccccc2)NC(=O)[C@@H]2CSCCC(=O)N3CN(CN(C3)C(=O)CCSC[C@@H](C(=O)N[C@@H](C)C(N)=O)NC1=O)C(=O)CCSC[C@H](NC(C)=O)C(=O)N[C@@H](CC(C)(C)C)C(=O)N1CCC[C@H]1C(=O)N[C@@H](CCCCNC(=O)CCc1cn(CCOCCOCCOCCOCCOCCOCCOCCOCCOCCOCCOCCOCCOCCOCCOCCOCCOCCOCCOCCOCCOCCOCCOCCNC(=O)CCOCC(COCCC(=O)NCCOCCOCCOCCOCCOCCOCCOCCOCCOCCOCCOCCOCCOCCOCCOCCOCCOCCOCCOCCOCCOCCOCCOCCn3cc(CCC(=O)NCCCC[C@@H]4NC(=O)[C@@H]5CCCN5C(=O)[C@H](CC(C)(C)C)NC(=O)[C@@H](NC(C)=O)CSCCC(=O)N5CN6CN(C5)C(=O)CCSC[C@H](NC(=O)[C@H](Cc5ccc(O)cc5)NC(=O)[C@@H]5CCCN5C(=O)[C@@H](C)NC4=O)C(=O)N[C@@H](Cc4ccccc4)C(=O)N[C@@H](C)C(=O)N[C@@H](CC(=O)O)C(=O)N4CCC[C@H]4C(=O)N[C@@H](Cc4ccc(O)cc4)C(=O)N[C@@H](CCCC)C(=O)N[C@H](C(=O)N[C@@H](C)C(N)=O)CSCCC6=O)nn3)(COCCC(=O)NCCOCCOCCOCCOCCOCCOCCOCCOCCOCCOCCOCCOCCOCCOCCOCCOCCOCCOCCOCCOCCOCCOCCOCCn3cc(CCC(=O)NCCCC[C@@H]4NC(=O)[C@@H]5CCCN5C(=O)[C@H](CC(C)(C)C)NC(=O)[C@@H](NC(C)=O)CSCCC(=O)N5CN6CN(C5)C(=O)CCSC[C@H](NC(=O)[C@H](Cc5ccc(O)cc5)NC(=O)[C@@H]5CCCN5C(=O)[C@@H](C)NC4=O)C(=O)N[C@@H](Cc4ccccc4)C(=O)N[C@@H](C)C(=O)N[C@@H](CC(=O)O)C(=O)N4CCC[C@H]4C(=O)N[C@@H](Cc4ccc(O)cc4)C(=O)N[C@@H](CCCC)C(=O)N[C@H](C(=O)N[C@@H](C)C(N)=O)CSCCC6=O)nn3)COCCC(=O)NCCOCCOCCOCCOCCOCCOCCOCCOCCOCCOCCOCCOCCOCCOCCOCCOCCOCCOCCOCCOCCOCCOCCOCCn3cc(CCC(=O)NCCCC[C@@H]4NC(=O)[C@@H]5CCCN5C(=O)[C@H](CC(C)(C)C)NC(=O)[C@@H](NC(C)=O)CSCCC(=O)N5CN6CN(C5)C(=O)CCSC[C@H](NC(=O)[C@H](Cc5ccc(O)cc5)NC(=O)[C@@H]5CCCN5C(=O)[C@@H](C)NC4=O)C(=O)N[C@@H](Cc4ccccc4)C(=O)N[C@@H](C)C(=O)N[C@@H](CC(=O)O)C(=O)N4CCC[C@H]4C(=O)N[C@@H](Cc4ccc(O)cc4)C(=O)N[C@@H](CCCC)C(=O)N[C@H](C(=O)N[C@@H](C)C(N)=O)CSCCC6=O)nn3)nn1)C(=O)N[C@H](C)C(=O)N1CCC[C@H]1C(=O)N[C@@H](Cc1ccc(O)cc1)C(=O)N2", "note": "[BCY8945]", "values": [
      {"measurement": "anti-tumour activity (tumor volume), Study 2", "setting": "MC38 syngeneic tumors; 30 mg/kg QD × 20, FIG. 8", "value": "elicits anti-tumour activity"},
      {"measurement": "T-cell percentage in the tumor tissue (% CD3+ among CD45+)", "setting": "MC38 syngeneic tumors; Study 2, 21 days of treatment, compared to CD137 monoclonal antibody agonist, FIG. 9", "value": "elicits a range of increase in T-cell and CD8+ T-cell percentage"},
      {"measurement": "CD8+ T-cell percentage in the tumor tissue (% CD8+ among CD45+CD3+)", "setting": "MC38 syngeneic tumors; Study 2, 21 days of treatment, compared to CD137 monoclonal antibody agonist, FIG. 10", "value": "elicits a range of increase in T-cell and CD8+ T-cell percentage"},
      {"measurement": "CD4+ T-cell percentage in the tumor tissue (% CD4+ among CD45+CD3+)", "setting": "MC38 syngeneic tumors; Study 2, 21 days of treatment, compared to CD137 monoclonal antibody agonist, FIG. 11", "value": "elicits a range of decease in T-cell percentage"},
      {"measurement": "cell activity after washout", "setting": "CD137 [1]", "value": "maintains cell activity after washout"},
      {"measurement": "pro-inflammatory cytokine (IL-2, IFNγ) secretion by T-cells", "setting": "[2]", "value": "secrete pro-inflammatory cytokines"},
      {"measurement": "Average Fold EC50 Improvement relative to BCY7845", "setting": "CD137 [3]", "value": 0.13},
      {"measurement": "Average Relative Fold Induction relative to BCY7845", "setting": "CD137 [3]; Average fold induction for BCY7845 = 6.3", "value": 1.23},
      {"measurement": "CD137 agonism / activation in reporter cells (in words)", "setting": "CD137 [3]; FIGS. 1 to 3 and 15", "value": "activates CD137 on the surface of Jurkat reporter cells"}
    ]}
  ]
}
